Counter-ions that a name gives are not always drawn.

The target of experiment [1] is T1, HCV RNA dependent RNA polymerase (NS5B) (Hepatitis C virus genotype 1b, UniProt P26663).
T1 construct: made in house; host or cells: insect cells infected with recombinant baculovirus (as described for the cited WO 96/37619)
Kind of experiment: In-vitro HCV NS5B enzyme inhibition assay. The class given is biochemical. The following applies: NS5B enzyme 5 nM, 1 h at 22° C. The text has this: i) In-vitro HCV NS5B Enzyme Inhibition Assay
WO 96/37619 describes the production of recombinant HCV RdRp from insect cells infected with recombinant baculovirus encoding the enzyme. […] The reference describes a polymerisation assay using poly(A) and oligo(U) as a primer or an heteropolymeric template. Incorporation of tritiated UTP or NTPs is quantified by measuring acid-insoluble radioactivity. The present inventors have employed this assay to screen the various compounds described above as inhibitors of HCV RdRp.
(§1) Incorporation of radioactive UMP was measured as follows. The standard reaction (50 μl) was carried out in a buffer containing 20 mM tris/HCl pH 7.5, 5 mM MgCl2, 1 mM DTT, 50 mM NaCl, 0.03% N-octylglucoside, 1 μCi [^3H]-UTP (40 Ci/mmol, NEN), 10 μM UTP and 10 μg/ml poly(A) or 5 μM NTPs and 5 μg/ml heteropolymeric template. Oligo(U)12 (1 μg/ml, Genset) was added as a primer in the assay working on Poly(A) template. The final NS5B enzyme concentration was 5 nM. The order of assembly was: 1) compound, 2) enzyme, 3) template/primer, 4) NTP. After 1 h incubation at 22° C. the reaction was stopped by adding 50 μl of 20% TCA and applying samples to DE81 filters. The filters were washed thoroughly with 5% TCA containing 1M Na2HPO4/NaH2PO4, pH 7.0, rinsed with water and then ethanol, air dried, and the filter-bound radioactivity was measured in the scintillation counter. […]

Experiment [2] deals with subgenomic HCV replicon in Huh-7 cells. Kind of experiment: Cell based HCV sub-genomic replication assay (NS3 Cell-ELISA). The note with it: Hepatitis C virus; Huh-7 replicon cells, 96 hours, NS3 expression. The protocol: as §1
Cell clones that stably maintain subgenomic HCV replicon were obtained by transfecting Huh-7 cells with an RNA replicon identical to I377neo/NS3-3′/wt described by Lohmann et al. (1999) (EMBL-genbank No. AJ242652), followed by selection with neomycin sulfate (G418). […] Each condition was tested in duplicate and average absorbance values were used for calculations. […] After washing again as above, the reaction was developed with p-Nitrophenyl phosphate disodium substrate (Sigma) and the absorbance at 405/620 nm read at intervals. […]

T1 sequence (P26663 2420-3010): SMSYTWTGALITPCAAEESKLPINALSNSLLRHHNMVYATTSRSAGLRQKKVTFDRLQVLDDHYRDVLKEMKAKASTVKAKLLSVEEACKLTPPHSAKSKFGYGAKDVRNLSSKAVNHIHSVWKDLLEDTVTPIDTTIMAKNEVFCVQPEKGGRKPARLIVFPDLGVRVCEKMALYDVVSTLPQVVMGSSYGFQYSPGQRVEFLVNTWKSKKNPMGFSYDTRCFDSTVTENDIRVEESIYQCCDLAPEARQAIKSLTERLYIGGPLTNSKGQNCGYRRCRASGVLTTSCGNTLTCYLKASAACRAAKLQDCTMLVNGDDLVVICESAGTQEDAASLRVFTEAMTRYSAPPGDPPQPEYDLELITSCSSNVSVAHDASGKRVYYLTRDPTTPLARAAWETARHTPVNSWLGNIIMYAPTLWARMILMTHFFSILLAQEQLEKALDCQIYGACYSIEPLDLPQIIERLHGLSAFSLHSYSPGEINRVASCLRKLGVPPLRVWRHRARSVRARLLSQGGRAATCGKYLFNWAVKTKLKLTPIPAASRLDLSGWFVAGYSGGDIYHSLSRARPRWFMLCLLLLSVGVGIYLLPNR

Broadly, the IC50 is the concentration needed to halve the response being measured. The term EC50 denotes the concentration at which the effect is half-maximal. Read a low EC50 as higher potency in that assay. In experiment [1], `CN(CC1CCCCN1C)C(=O)Cn1c(-c2ccccc2)c(C2CCCCC2)c2ccc(C(=O)O)cc21` (centres unmarked) [Example 15, 3-cyclohexyl-1-(2-{methyl[(1-methylpiperidin-2-yl)methyl]amino}-2-oxoethyl)-2-phenyl-1H-indole-6-carboxylic acid trifluoroacetate] gave an IC50 of 14 nM. This compound also returned an EC50 in experiment [2] of 270 nM.

Values taken from patent US20070167447A1, “Indole acetamides as inhibitors of the hepatitis c virus ns5b polymerase” (priority 2003, published 2007).
